This is an account of results in patent publication US20130178597A1, “POLYIMIDE PRECURSOR, POLYIMIDE, AND MATERIALS TO BE USED IN PRODUCING SAME” (UBE INDUSTRIES, LTD., priority 2010, published 2013).

The nature of series [1]: Light transmittance at 400 nm of i-BPDA powder, 10 mass % in 2 N aqueous sodium hydroxide. It is filed as physicochemical. Conditions: light path 1 cm. On the procedure: A predetermined amount of i-BPDA powder was dissolved in a 2 N aqueous solution of sodium hydroxide to obtain a 10 mass % aqueous solution. Using a MCPD-300 manufactured by Otsuka Electronics Co., Ltd., and a standard cell having a light path length of 1 cm, the light transmittance at 400 nm of the i-BPDA solution was measured using the 2 N aqueous solution of sodium hydroxide as a blank.

Series [2] is described as follows: Solubility of i-BPDA at 25° C. in solvent. It is filed as physicochemical. Conditions: i-BPDA in the solvent used in the example.
Description: The non-dissolved i-BPDA was filtered through filter paper 5A manufactured by Advantec, Inc. to obtain i-BPDA saturated solution. 5 g of the i-BPDA saturated solution was charged into an aluminum dish, heated for 1 hour at 80° C., and then heated for 1 hour at 200° C. The solubility was calculated by determining the mass of i-BPDA remaining in the saturated solution based on the residue after heating.
Series [3] can be described thus: Light transmittance at 400 nm of a-BPDA powder, 10 mass % in 2 N aqueous sodium hydroxide. It is filed as physicochemical. The note with it: light path 1 cm.
Series [4] in a line: Light transmittance at 400 nm of trans-1,4-diaminocyclohexane powder, 10 mass % in pure water. It is filed as physicochemical. Conditions: light path 1 cm. On the procedure:
A predetermined amount of trans-1,4-diaminocyclohexane powder was dissolved in pure water to obtain a 10 mass % aqueous solution. Using a MCPD-300 manufactured by Otsuka Electronics Co., Ltd., and a standard cell having a light path length of 1 cm, the light transmittance at 400 nm of the trans-1,4-diaminocyclohexane solution was measured using pure water as a blank.

Series [5] is described as follows: Light transmittance at 400 nm of s-BPDA powder, 10 mass % in 2 N aqueous sodium hydroxide. It is filed as physicochemical. Conditions: light path 1 cm. On the procedure:
A predetermined amount of s-BPDA powder was dissolved in a 2 N aqueous solution of sodium hydroxide to obtain a 10 mass % aqueous solution. Using a MCPD-300 manufactured by Otsuka Electronics Co., Ltd., and a standard cell having a light path length of 1 cm, the light transmittance at 400 nm of the s-BPDA solution was measured using the 2 N aqueous solution of sodium hydroxide as a blank.

Series [6] can be described thus: Solubility of s-BPDA at 25° C. in solvent. Conditions: s-BPDA in the solvent used in the example.
Description: The non-dissolved s-BPDA was filtered through filter paper 5A manufactured by Advantec, Inc. to obtain s-BPDA saturated solution. 5 g of the s-BPDA saturated solution was charged into an aluminum dish, heated for 1 hour at 80° C., and then heated for 1 hour at 200° C. The solubility was calculated by determining the mass of s-BPDA remaining in the saturated solution based on the residue after heating.
A short description of series [7]: Light transmittance of solvent at 400 nm after heating with refluxing. Type of series: physicochemical. The note with it: heated to reflux for 3 hours under nitrogen atmosphere. On the procedure: For light transmittance after heating with refluxing, measurement was carried out using a solvent that had been heated to reflux for 3 hours under nitrogen atmosphere having oxygen concentration of 200 ppm or less.

Series [8] in a line: Light transmittance of solvent at 400 nm. It is filed as physicochemical. Conditions: light path 1 cm, water as a blank. On the procedure: Using a MCPD-300 manufactured by Otsuka Electronics Co., Ltd., and a standard cell having a light path length of 1 cm, the light transmittance of a solvent at 400 nm was measured using water as a blank.

Each structure is given as a SMILES string. Bounds are passed on as bounds.

Take `O=C1OC(=O)c2c1cccc2-c1cccc2c1C(=O)OC2=O` [Comparative Example F2, 2,2′,3,3′-Biphenyltetracarboxylic dianhydride, reference compound]: in series [1], the “Light Transmittance at 400 nm (i-BPDA)” value was 79%. The “Solubility at 25° C.” value in series [2] is listed as <0.1 g/100 g.

With `O=C1OC(=O)c2cc(-c3cccc4c3C(=O)OC4=O)ccc21` [Comparative Example C2, 2,3,3′,4′-Biphenyltetracarboxylic dianhydride, reference compound], the “light transmittance at 400 nm (a-BPDA powder)” value in series [3] came out at 81%.

With `O=C1OC(=O)c2c1cccc2-c1cccc2c1C(=O)OC2=O` [Example F6, 2,2′,3,3′-Biphenyltetracarboxylic dianhydride], the “Light Transmittance at 400 nm (i-BPDA)” value in series [1] is listed as 95%.

In the case of `O=C1OC(=O)c2c1cccc2-c1cccc2c1C(=O)OC2=O` [Example F1, 2,2′,3,3′-Biphenyltetracarboxylic dianhydride], the “Light Transmittance at 400 nm (i-BPDA)” value in series [1] was 91%. Moreover, the “Solubility at 25° C.” value in series [2] is reported as 3.2 g/100 g.

In the case of `N[C@H]1CC[C@H](N)CC1` [Example E2, trans-1,4-diaminocyclohexane], in series [4], the “Light Transmittance at 400 nm (trans-1,4-diaminocyclohexane powder)” value turned out to be 96%.

As for `O=C1OC(=O)c2cc(-c3cccc4c3C(=O)OC4=O)ccc21` [Example C1, 2,3,3′,4′-Biphenyltetracarboxylic dianhydride], in series [3], the “light transmittance at 400 nm (a-BPDA powder)” value turned out to be 98%.

As to `O=C1OC(=O)c2cc(-c3ccc4c(c3)C(=O)OC4=O)ccc21` [Comparative Example D5, 3,3′,4,4′-Biphenyltetracarboxylic dianhydride, reference compound], the “light transmittance of obtained s-BPDA powder at 400 nm” value in series [5] is 3%.

Consider `N[C@H]1CC[C@H](N)CC1` [Referential Example E1, trans-1,4-diaminocyclohexane], for which the “Light Transmittance at 400 nm (trans-1,4-diaminocyclohexane powder)” value in series [4] is reported as 86%.

`O=C1OC(=O)c2cc(-c3cccc4c3C(=O)OC4=O)ccc21` [Example C4, 2,3,3′,4′-Biphenyltetracarboxylic dianhydride]: the “light transmittance at 400 nm (a-BPDA powder)” value in series [3] is listed as 92%.

As for `O=C1OC(=O)c2cc(-c3ccc4c(c3)C(=O)OC4=O)ccc21` [Comparative Example D2, 3,3′,4,4′-Biphenyltetracarboxylic dianhydride, reference compound], the “Solubility of used solvent at 25° C.” value in series [6] is given as <0.1 g/100 g. Besides, the “light transmittance of obtained s-BPDA powder at 400 nm” value in series [5] stood at 75%.

Regarding `O=C1OC(=O)c2cc(-c3cccc4c3C(=O)OC4=O)ccc21` [Example C5, 2,3,3′,4′-Biphenyltetracarboxylic dianhydride], the “light transmittance at 400 nm (a-BPDA powder)” value in series [3] amounted to 89%.

Take `O=C1OC(=O)c2c1cccc2-c1cccc2c1C(=O)OC2=O` [Example F4, 2,2′,3,3′-Biphenyltetracarboxylic dianhydride]: in series [1], the “Light Transmittance at 400 nm (i-BPDA)” value is given as 93%.

Consider `O=C1OC(=O)c2c1cccc2-c1cccc2c1C(=O)OC2=O` [Example F5, 2,2′,3,3′-Biphenyltetracarboxylic dianhydride], for which the “Light Transmittance at 400 nm (i-BPDA)” value in series [1] is given as 91%.

With `O=C1OC(=O)c2cc(-c3ccc4c(c3)C(=O)OC4=O)ccc21` [Comparative Example D4, 3,3′,4,4′-Biphenyltetracarboxylic dianhydride, reference compound], the “light transmittance of obtained s-BPDA powder at 400 nm” value in series [5] came to 72%.

In the case of `O=C1OC(=O)c2cc(-c3ccc4c(c3)C(=O)OC4=O)ccc21` [Example D5, 3,3′,4,4′-Biphenyltetracarboxylic dianhydride], the “Solubility of used solvent at 25° C.” value in series [6] came to 0.1 g/100 g.

Turning to `O=C1OC(=O)c2cc(-c3ccc4c(c3)C(=O)OC4=O)ccc21` [Example D3, 3,3′,4,4′-Biphenyltetracarboxylic dianhydride], the “Solubility of used solvent at 25° C.” value in series [6] is recorded as 2.3 g/100 g. Besides, the “light transmittance of obtained s-BPDA powder at 400 nm” value in series [5] was 82%.

Take `CN1CCCC1=O` [NMP (99.62%), N-methyl-2-pyrrolidone]: in series [7], the “Light Transmittance at 400 nm after reflux (solvent)” value was 0.1%. Also, in series [8], the “Light Transmittance at 400 nm (solvent)” value is on record as 88%.

For the compound `O=C1OC(=O)c2cc(-c3ccc4c(c3)C(=O)OC4=O)ccc21` [Example D7, 3,3′,4,4′-Biphenyltetracarboxylic dianhydride], the “Solubility of used solvent at 25° C.” value in series [6] amounted to 0.3 g/100 g. Also, the “light transmittance of obtained s-BPDA powder at 400 nm” value in series [5] was 79%.

On to `O=C1OC(=O)c2cc(-c3ccc4c(c3)C(=O)OC4=O)ccc21` [Example D2, 3,3′,4,4′-Biphenyltetracarboxylic dianhydride], for which the “light transmittance of obtained s-BPDA powder at 400 nm” value in series [5] is 81%.

`N[C@H]1CC[C@H](N)CC1` [Referential Example E2, trans-1,4-diaminocyclohexane]: the “Light Transmittance at 400 nm (trans-1,4-diaminocyclohexane powder)” value in series [4] is 89%.

Take `O=C1OC(=O)c2c1cccc2-c1cccc2c1C(=O)OC2=O` [Comparative Example F3, 2,2′,3,3′-Biphenyltetracarboxylic dianhydride, reference compound]: in series [1], the “Light Transmittance at 400 nm (i-BPDA)” value is 66%.

For `O=C1OC(=O)c2c1cccc2-c1cccc2c1C(=O)OC2=O` [Example F2, 2,2′,3,3′-Biphenyltetracarboxylic dianhydride], the “Light Transmittance at 400 nm (i-BPDA)” value in series [1] was 92%. Also, in series [2], the “Solubility at 25° C.” value was 4.4 g/100 g.

Regarding `O=C1OC(=O)c2cc(-c3cccc4c3C(=O)OC4=O)ccc21` [Example C3, 2,3,3′,4′-Biphenyltetracarboxylic dianhydride], in series [3], the “light transmittance at 400 nm (a-BPDA powder)” value was found to be 94%.

With `O=C1OC(=O)c2cc(-c3ccc4c(c3)C(=O)OC4=O)ccc21` [Example D1, 3,3′,4,4′-Biphenyltetracarboxylic dianhydride], the “Solubility of used solvent at 25° C.” value in series [6] is reported as 1.3 g/100 g. Moreover, in series [5], the “light transmittance of obtained s-BPDA powder at 400 nm” value worked out at 81%.

As for `O=C1OC(=O)c2c1cccc2-c1cccc2c1C(=O)OC2=O` [Example F7, 2,2′,3,3′-Biphenyltetracarboxylic dianhydride], the “Light Transmittance at 400 nm (i-BPDA)” value in series [1] is listed as 89%.

Take `O=C1OC(=O)c2cc(-c3ccc4c(c3)C(=O)OC4=O)ccc21` [Example D6, 3,3′,4,4′-Biphenyltetracarboxylic dianhydride]: in series [6], the “Solubility of used solvent at 25° C.” value turned out to be 0.4 g/100 g.

Consider `O=C1OC(=O)c2cc(-c3cccc4c3C(=O)OC4=O)ccc21` [Comparative Example C4, 2,3,3′,4′-Biphenyltetracarboxylic dianhydride, reference compound], for which the “light transmittance at 400 nm (a-BPDA powder)” value in series [3] worked out at 84%.

For the compound `O=C1OC(=O)c2cc(-c3ccc4c(c3)C(=O)OC4=O)ccc21` [Comparative Example D3, 3,3′,4,4′-Biphenyltetracarboxylic dianhydride, reference compound], the “Solubility of used solvent at 25° C.” value in series [6] was <0.1 g/100 g. For the same compound, in series [5], the “light transmittance of obtained s-BPDA powder at 400 nm” value is 75%.

`O=C1OC(=O)c2cc(-c3cccc4c3C(=O)OC4=O)ccc21` [Comparative Example C1, 2,3,3′,4′-Biphenyltetracarboxylic dianhydride, reference compound]: the “light transmittance at 400 nm (a-BPDA powder)” value in series [3] is recorded as 77%.

Take `O=C1OC(=O)c2c1cccc2-c1cccc2c1C(=O)OC2=O` [Comparative Example F1, 2,2′,3,3′-Biphenyltetracarboxylic dianhydride, reference compound]: the “Light Transmittance at 400 nm (i-BPDA)” value in series [1] amounted to 79%.

In the case of `O=C1OC(=O)c2cc(-c3ccc4c(c3)C(=O)OC4=O)ccc21` [Example D8, 3,3′,4,4′-Biphenyltetracarboxylic dianhydride], the “light transmittance of obtained s-BPDA powder at 400 nm” value in series [5] amounted to 91%.

On to `O=C1OC(=O)c2cc(-c3ccc4c(c3)C(=O)OC4=O)ccc21` [Comparative Example D1, 3,3′,4,4′-Biphenyltetracarboxylic dianhydride, reference compound], for which the “light transmittance of obtained s-BPDA powder at 400 nm” value in series [5] is on record as 75%.

As to `CN1CCCC1=O` [NMP (99.96%), N-methyl-2-pyrrolidone], the “Light Transmittance at 400 nm after reflux (solvent)” value in series [7] turned out to be 41%. Further, the “Light Transmittance at 400 nm (solvent)” value in series [8] amounted to 89%.

In the case of `O=C1OC(=O)c2c1cccc2-c1cccc2c1C(=O)OC2=O` [Example F3, 2,2′,3,3′-Biphenyltetracarboxylic dianhydride], the “Light Transmittance at 400 nm (i-BPDA)” value in series [1] is 93%. Further, in series [2], the “Solubility at 25° C.” value was 6.8 g/100 g.

Turning to `O=C1OC(=O)c2cc(-c3cccc4c3C(=O)OC4=O)ccc21` [Example C2, 2,3,3′,4′-Biphenyltetracarboxylic dianhydride], in series [3], the “light transmittance at 400 nm (a-BPDA powder)” value turned out to be 97%.

`O=C1OC(=O)c2cc(-c3ccc4c(c3)C(=O)OC4=O)ccc21` [Example D4, 3,3′,4,4′-Biphenyltetracarboxylic dianhydride]: in series [5], the “light transmittance of obtained s-BPDA powder at 400 nm” value amounted to 78%.
